Source: article PMC10210183 (ACS Omega, 2023)

Target: eqBChE (Equus caballus, UniProt P81908)
Assay: biochemical
Conditions: read-out: BChE % Inhibition ± SD @ 1 μM, eqBChE, 1 μM

Chain of eqBChE (P81908 whole entry): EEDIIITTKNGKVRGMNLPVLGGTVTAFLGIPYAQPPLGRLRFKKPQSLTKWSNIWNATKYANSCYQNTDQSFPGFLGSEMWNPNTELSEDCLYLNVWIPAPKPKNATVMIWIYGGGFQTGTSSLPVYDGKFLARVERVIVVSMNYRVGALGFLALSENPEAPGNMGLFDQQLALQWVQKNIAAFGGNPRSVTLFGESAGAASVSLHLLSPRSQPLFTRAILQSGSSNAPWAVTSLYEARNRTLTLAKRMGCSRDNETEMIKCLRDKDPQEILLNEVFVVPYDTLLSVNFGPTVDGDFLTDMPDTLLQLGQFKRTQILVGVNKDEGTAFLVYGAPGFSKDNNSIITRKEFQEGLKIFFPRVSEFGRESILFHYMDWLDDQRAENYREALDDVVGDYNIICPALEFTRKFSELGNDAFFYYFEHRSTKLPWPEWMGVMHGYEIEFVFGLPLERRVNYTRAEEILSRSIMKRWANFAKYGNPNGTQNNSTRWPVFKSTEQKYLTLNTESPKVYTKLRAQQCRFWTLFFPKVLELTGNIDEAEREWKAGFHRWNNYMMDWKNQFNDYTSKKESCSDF

Row | SMILES | inhibition at 1 µM
1 | COc1cc(/C=C/c2cc[n+](Cc3ccccc3)cc2)cc(OC)c1 [Compound 7a, (E)-1-Benzyl-4-(3,5-dimethoxystyryl)pyridin-1-ium bromide] | 20%
2 | COc1ccc2cc(/C=C/c3cc[n+](Cc4ccccc4)cc3)ccc2c1 [Compound 7aq, (E)-1-Benzyl-4-(2-(6-methoxynaphthalen-2-yl)vinyl)pyridin-1-ium bromide] | 60%
